Series [1] is described as follows: Body weight during treatment. The class given is in vivo, ApoE^–/– mice. The conditions noted are these: in g (unit assumed). From the text:
SerBut water was pH adjusted using 10 M NaOH to a final pH of 7.4. […] After 6 weeks, mice were euthanized. […] The liver was harvested and part was homogenized in tissue protein extraction reagent buffer (Invitrogen, 78510) supplemented with protease inhibitor mini tablets (Thermo Fisher Scientific, PIA32955) for Western blotting and qPCR.

Series [2] concerns bone marrow–derived dendritic cells (BMDCs). Further details: method as in PMID 38561491, PMID 27897220. Conditions: BMDCs ref 28, 40; cited from earlier work.
The subject of another series is HDAC. Further details: method as in PMID 38561491. The conditions noted are these: RAW 264.7 ref 28; cited from earlier work.

“And” between values parts separate entries of the source, which are not always exact repeats. Equal values may be shown once.

Consider `CCCC(=O)OC[C@H](N)C(=O)O` [SerBut, O-butyryl-L-serine], for which the Weight in series [1] (week 0, 150 mM in drinking water with HFD, individual mice) was 18.7 and 18.3 and 20 and 18.8 and 17 and 19.2 and 18.6 and 18.9 and 20.5 and 19.6; in series [1] (week 2), 20.9 and 20.5 and 20.2 and 18.7 and 20 and 20.6 and 20.3 and 21.2; in series [1] (week 2.5) it was 21.2 and 20.6 and 21.6 and 19.8 and 21.4 and 21.5 and 20.7 and 21.9; in series [1] (week 5), 24 and 22.2 and 21.8 and 20.2 and 21.1 and 22.4 and 21.4 and 22.7; in series [1] (week 6), 23.8 and 21.9 and 22.9 and 19.2 and 21.6 and 22.7 and 21.4 and 23.1. For the same compound, the “inflammatory marker expression” value in series [2] is on record as “suppressed inflammatory marker expression”. In addition, the “HDAC inhibition activity” value in the series on HDAC is on record as “maintained attenuated HDAC inhibition activity”.

These data come from paper PMC12333940, “A prometabolite strategy inhibits cardiometabolic disease in an ApoE^–/– murine model of atherosclerosis” (JCI Insight, 2025).
